US7968600B2, “Medicament for preventive and therapeutic treatment of physical dysfunction caused by nerve damage” (Nanoegg Research Laboratories, Inc., priority 2007, dated 2011)

What was measured:
regenerated nerves = settings: 50 μL (10 nM RA); cited from earlier work
[1] = system: traumatic spinal cord injury model rats; experiment: Basso-Beattie-Bresnahan (BBB) score, motor function of the hind limb in traumatic spinal cord injury model rats; assay type: in vivo, Wistar rats; settings: for BBB score: 21st day from the injury; for BBB scores compared to the control group (FIG. 1): time course after the injury
Description: (§1) 23 of 9 weeks old female Wistar rats had on their spinal cords of the thoracic vertebrae injured under anesthesia by loading a weight of 10 g dropped from a height of 2.5 cm to prepare traumatic spinal cord injury model rats with impaired motor function of the hind limb. The 23 rats were divided into the following 3 groups: • 1st Group: 8 rats were administered orally with 3 mg/kg of 4-[(5,6,7,8-tetrahydro-5,5,8,8-tetramethyl-2-naphthalenyl)carbamoyl]benzoic acid once before the injury and then once a day. • 2nd Group: 8 rats were administered with 0.15 mg/kg of 4-[(5,6,7,8-tetrahydro-5,5,8,8-tetramethyl-2-naphthalenyl)carbamoyl]benzoic acid directly to the injured site immediately after the injury, and then administered subcutaneously once a day near the injured area. • 3rd Group: 7 rats were administered orally with 1 ml/kg of 0.5% carboxymethyl cellulose (CMC) solution as a control group.
(§2) Administration was performed every day for 21 days after the injury for each group. The motor function of the hind limb was evaluated according to the Basso-Beattie-Bresnahan (BBB) score every day up to 21st day, and 28th day after the injury. For animals with BBB scores being 10 or more, evaluation of the motor function was performed by using a treadmill (manufactured by Muromachi Kikai Co., Ltd) on the 21st and the 28th day. The treadmill tests were performed for 5 minutes with velocity of the treadmill walking surface being kept at 8 m/min. In the test, a period of time during which the animal walked with four legs was measured, and in addition, total number of the contact of the animal with the end wall of the walking surface due to the stop walking of the animal was measured, thereby motor function was evaluated.

[2] = system: traumatic spinal cord injury model rats; experiment: Treadmill test (compulsory walking) in traumatic spinal cord injury model rats; assay type: in vivo, Wistar rats; settings: for Number of contact to back end wall: 21st day from the injury, treadmill 8 m/min for 5 min, **p < 0.01; for number of the contact with the back end wall as compared to the control group / walking period as compared to the control group: treadmill test
Description: as §1, §2

Row | Compound | increase of regenerated nerves (regenerated nerves) | recovery in nerve and motor functions (regenerated nerves) | BBB score ([1]; oral 3.0 mg/kg once a day) | BBB scores compared to the control group (FIG. 1) ([1]; oral 3 mg/kg) | BBB score ([1]; subcutaneous 0.15 mg/kg once a day, *p < 0.05) | BBB scores compared to the control group (FIG. 1) ([1]; subcutaneous 0.15 mg/kg) | Number of contact to back end wall ([2]; oral 3.0 mg/kg once a day) | number of the contact with the back end wall as compared to the control group ([2]; oral administration) | walking period as compared to the control group ([2]; oral administration) | Number of contact to back end wall ([2]; subcutaneous 0.15 mg/kg once a day) | number of the contact with the back end wall as compared to the control group ([2]; subcutaneous administration) | walking period as compared to the control group ([2]; subcutaneous administration)
1 | CC1=C(/C=C/C(C)=C/C=C/C(C)=C/C(=O)O)C(C)(C)CCC1 [Vitamin A acid, all-trans retinoic acid] | 30% | no recovery |  |  |  |  |  |  |  |  |  | 
2 | CC1(C)CCC(C)(C)c2cc(NC(=O)c3ccc(C(=O)O)cc3)ccc21 [4-[(5,6,7,8-tetrahydro-5,5,8,8-tetramethyl-2-naphthalenyl)carbamoyl]benzoic acid] |  |  | 11.43 ± 3.80 ^ | significantly improved BBB scores | 12.71 ± 2.28(*) | significantly improved BBB scores | 16.0 ± 8.3(**) | remarkable decrease | prolongation of the walking period | 13.4 ± 6.7(**) | remarkable decrease | prolongation of the walking period
